Measurements published in patent US9833497B2, “Human originated EGF domain proteins and use of the same” (CHENGDU SOURCEBIO LIMITED-LIABILITY COMPANY, priority 2013, dated 2017).

Tests used:
Assay type in all cases: cell-based
Aeromonas hydrophila = assay: MIC against Gram-negative bacteria: Aeromonas hydrophila; settings: 5×10^5 CFU/mL; for MIC A. hydrophila: two-fold serial dilution
Outline: (§1)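 Inocula prepared by growing LB cultures at 37° C to 0.5 McFarland, centrifuging at 4000×g, and resuspending in fresh medium. Final density 5×10^5 CFU/mL per well with two-fold dilutions of purified EGF domain protein; shaking incubation at 37° C.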

Proteus mirabilis = assay: MIC against Gram-negative bacteria: Proteus mirabilis; settings: 5×10^5 CFU/mL; for MIC P. mirabilis: two-fold serial dilution
Outline: as §1

Serratia marcescens = assay: MIC against Gram-negative bacteria: Serratia marcescens; settings: 5×10^5 CFU/mL; for MIC S. marcescens: two-fold serial dilution
Outline: as §1

Moraxella catarrhalis = assay: MIC against Gram-negative bacteria: Moraxella catarrhalis; settings: 5×10^5 CFU/mL; for MIC M. catarrhalis: two-fold serial dilution
Outline: as §1

Citrobacter diversus = assay: MIC against Gram-negative bacteria: Citrobacter diversus; settings: 5×10^5 CFU/mL; for MIC C. diversus: two-fold serial dilution
Outline: as §1

Proteus vulgaris = assay: MIC against Gram-negative bacteria: Proteus vulgaris; settings: 5×10^5 CFU/mL; for MIC P. vulgaris: two-fold serial dilution
Outline: as §1

E. coli DH5α = assay: Antibacterial activity: MIC and growth curve against E. coli DH5α in 96-well plate; settings: minimal inhibitory concentration against E. coli DH5α; 96-well plate, 5×10^5 CFU/mL, 37° C., judged after 8 h
Outline: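 Log-phase DH5α (OD600 about 0.5, 37° C, 185 rpm in LB) was pelleted, resuspended in fresh LB and seeded at 5×10^5 CFU/mL with recombinant protein at 50, 25 and 12.5 μg/mL (two-fold series), in triplicate. Plates were shaken at 175 rpm, 37° C, and OD600 was read every 30 min. MIC was the lowest concentration with no growth.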

Enterobacter cloacae = assay: MIC against Gram-negative bacteria: Enterobacter cloacae; settings: 5×10^5 CFU/mL; for MIC E. cloacae: two-fold serial dilution
Outline: as §1

Klebsiella pneumonia = assay: MIC against Gram-negative bacteria: Klebsiella pneumonia; settings: 5×10^5 CFU/mL; for MIC K. pneumonia: two-fold serial dilution
Outline: as §1

E. coli BL21 = assay: MIC against Gram-negative bacteria: E. coli BL21; settings: 5×10^5 CFU/mL; for MIC E. coli BL21: two-fold serial dilution
Outline: as §1

Pseudomonas aeruginosa = assay: MIC against Gram-negative bacteria: Pseudomonas aeruginosa; settings: 5×10^5 CFU/mL; for MIC P. aeruginosa: two-fold serial dilution
Outline: as §1

[1] = Aeromonas hydrophila, 10 h cultivation at 37° C.
[2] = Proteus mirabilis, 10 h cultivation at 37° C.
[3] = Serratia marcescens, 10 h cultivation at 37° C.
[4] = Moraxella catarrhalis, 10 h cultivation at 37° C.
[5] = Citrobacter diversus, 10 h cultivation at 37° C.
[6] = Proteus vulgaris, 10 h cultivation at 37° C.
[7] = Enterobacter cloacae, 10 h cultivation at 37° C.
[8] = Klebsiella pneumonia, 10 h cultivation at 37° C.
[9] = E. coli BL21, 10 h cultivation at 37° C.
[10] = Pseudomonas aeruginosa, 10 h cultivation at 37° C.

PRT41 (CDRPCVNGGRCNPGTGQCVCPAGWVGEQC; listed as Homo sapiens)
MIC (μg/mL) A. hydrophila (Aeromonas hydrophila; Aeromonas hydrophila, 96-well plate, 37° C., 10 h): 12.5 µg/mL
MIC (μg/mL) P. mirabilis (Proteus mirabilis; Proteus mirabilis, 96-well plate, 37° C., 10 h): 25 µg/mL
MIC (μg/mL) S. marcescens (Serratia marcescens; Serratia marcescens, 96-well plate, 37° C., 10 h): 50 µg/mL
MIC (μg/mL) M. catarrhalis (Moraxella catarrhalis; Moraxella catarrhalis, 96-well plate, 37° C., 10 h): 12.5 µg/mL
MIC (μg/mL) C. diversus (Citrobacter diversus; Citrobacter diversus, 96-well plate, 37° C., 10 h): 25 µg/mL
MIC (μg/mL) P. vulgaris (Proteus vulgaris; Proteus vulgaris, 96-well plate, 37° C., 10 h): 12.5 µg/mL
MIC (E. coli DH5α): 25 mg/L
MIC (μg/mL) E. cloacae (Enterobacter cloacae; Enterobacter cloacae, 96-well plate, 37° C., 10 h): 25 µg/mL
MIC (μg/mL) K. pneumonia (Klebsiella pneumonia; Klebsiella pneumonia, 96-well plate, 37° C., 10 h): 12.5 µg/mL
MIC (μg/mL) E. coli BL21 (E. coli BL21; E. coli BL21, 96-well plate, 37° C., 10 h): 12.5 µg/mL
MIC (μg/mL) P. aeruginosa (Pseudomonas aeruginosa; Pseudomonas aeruginosa, 96-well plate, 37° C., 10 h): 25 µg/mL

PRT1358 (SQLACPSDCNDQGKCVNGVCICFEGYAGADCS; listed as Homo sapiens)
MIC against A. hydrophila (Aeromonas hydrophila; [1]): 25 mg/L
MIC against P. mirabilis (Proteus mirabilis; [2]): 12.5 mg/L
MIC against S. marcescens (Serratia marcescens; [3]): 12.5 mg/L
MIC against M. catarrhalis (Moraxella catarrhalis; [4]): 25 mg/L
MIC against C. diversus (Citrobacter diversus; [5]): 12.5 mg/L
MIC against P. vulgaris (Proteus vulgaris; [6]): 25 mg/L
MIC (E. coli DH5α): 50 mg/L
MIC against E. cloacae (Enterobacter cloacae; [7]): 12.5 mg/L
MIC against K. pneumonia (Klebsiella pneumonia; [8]): 12.5 mg/L
MIC against E. coli BL21 (E. coli BL21; [9]): 12.5 mg/L
MIC against P. aeruginosa (Pseudomonas aeruginosa; [10]): 50 mg/L

PRT445 (DVNECELYGQEGRPRLCMHACVNTPGSYRCTCPGGYRTLADGKSCE; listed as Homo sapiens)
MIC against A. hydrophila (Aeromonas hydrophila; 96-well plate, 37° C., 10 h): 25 mg/L
MIC against P. mirabilis (Proteus mirabilis; 96-well plate, 37° C., 10 h): 12.5 mg/L
MIC against S. marcescens (Serratia marcescens; 96-well plate, 37° C., 10 h): 12.5 mg/L
MIC against M. catarrhalis (Moraxella catarrhalis; 96-well plate, 37° C., 10 h): 12.5 mg/L
MIC against C. diversus (Citrobacter diversus; 96-well plate, 37° C., 10 h): 50 mg/L
MIC against P. vulgaris (Proteus vulgaris; 96-well plate, 37° C., 10 h): 12.5 mg/L
MIC (E. coli DH5α): 50 mg/L
MIC against E. cloacae (Enterobacter cloacae; 96-well plate, 37° C., 10 h): 12.5 mg/L
MIC against K. pneumonia (Klebsiella pneumonia; 96-well plate, 37° C., 10 h): 25 mg/L
MIC against E. coli BL21 (E. coli BL21; 96-well plate, 37° C., 10 h): 12.5 mg/L
MIC against P. aeruginosa (Pseudomonas aeruginosa; 96-well plate, 37° C., 10 h): 50 mg/L

PRT1098 (DIDNCQSHQCANGATCISHTNGYSCLCFGNFTGKFCR; listed as Homo sapiens)
MIC A. hydrophila (Aeromonas hydrophila; 10 h cultivation at 37° C.): 25 mg/L
MIC P. mirabilis (Proteus mirabilis; 10 h cultivation at 37° C.): 12.5 mg/L
MIC S. marcescens (Serratia marcescens; 10 h cultivation at 37° C.): 50 mg/L
MIC M. catarrhalis (Moraxella catarrhalis; 10 h cultivation at 37° C.): 25 mg/L
MIC C. diversus (Citrobacter diversus; 10 h cultivation at 37° C.): 12.5 mg/L
MIC P. vulgaris (Proteus vulgaris; 10 h cultivation at 37° C.): 25 mg/L
MIC (E. coli DH5α): 12.5 mg/L
MIC E. cloacae (Enterobacter cloacae; 10 h cultivation at 37° C.): 12.5 mg/L
MIC K. pneumonia (Klebsiella pneumonia; 10 h cultivation at 37° C.): 12.5 mg/L
MIC E. coli BL21 (E. coli BL21; 10 h cultivation at 37° C.): 12.5 mg/L
MIC P. aeruginosa (Pseudomonas aeruginosa; 10 h cultivation at 37° C.): 12.5 mg/L

PRT1046 (WGFSCNASCQCAHEAVCSPQTGACTCTPGWHGAHCQ; listed as Homo sapiens)
MIC A. hydrophila (Aeromonas hydrophila; 10 h cultivation at 37° C.): 12.5 mg/L
MIC P. mirabilis (Proteus mirabilis; 10 h cultivation at 37° C.): 50 mg/L
MIC S. marcescens (Serratia marcescens; 10 h cultivation at 37° C.): 12.5 mg/L
MIC M. catarrhalis (Moraxella catarrhalis; 10 h cultivation at 37° C.): 50 mg/L
MIC C. diversus (Citrobacter diversus; 10 h cultivation at 37° C.): 50 mg/L
MIC P. vulgaris (Proteus vulgaris; 10 h cultivation at 37° C.): 25 mg/L
MIC (E. coli DH5α): 50 mg/L
MIC E. cloacae (Enterobacter cloacae; 10 h cultivation at 37° C.): 25 mg/L
MIC K. pneumonia (Klebsiella pneumonia; 10 h cultivation at 37° C.): 25 mg/L
MIC E. coli BL21 (E. coli BL21; 10 h cultivation at 37° C.): 25 mg/L
MIC P. aeruginosa (Pseudomonas aeruginosa; 10 h cultivation at 37° C.): 50 mg/L

PRT1189 (ECVPYPGCVHGSCVEPWQCNCETNWGGLLCD; listed as Homo sapiens)
MIC A. hydrophila (Aeromonas hydrophila; 10 h cultivation at 37° C.): 25 mg/L
MIC P. mirabilis (Proteus mirabilis; 10 h cultivation at 37° C.): 25 mg/L
MIC S. marcescens (Serratia marcescens; 10 h cultivation at 37° C.): 12.5 mg/L
MIC M. catarrhalis (Moraxella catarrhalis; 10 h cultivation at 37° C.): 12.5 mg/L
MIC C. diversus (Citrobacter diversus; 10 h cultivation at 37° C.): 50 mg/L
MIC P. vulgaris (Proteus vulgaris; 10 h cultivation at 37° C.): 50 mg/L
MIC (E. coli DH5α): 50 mg/L
MIC E. cloacae (Enterobacter cloacae; 10 h cultivation at 37° C.): 12.5 mg/L
MIC K. pneumonia (Klebsiella pneumonia; 10 h cultivation at 37° C.): 50 mg/L
MIC E. coli BL21 (E. coli BL21; 10 h cultivation at 37° C.): 12.5 mg/L
MIC P. aeruginosa (Pseudomonas aeruginosa; 10 h cultivation at 37° C.): 25 mg/L

PRT1385 (GVRSCPGDCNQRGRCEDGRCVCWPGYTGTDC; listed as Homo sapiens)
MIC against A. hydrophila (Aeromonas hydrophila; [1]): 50 mg/L
MIC against P. mirabilis (Proteus mirabilis; [2]): 12.5 mg/L
MIC against S. marcescens (Serratia marcescens; [3]): 50 mg/L
MIC against M. catarrhalis (Moraxella catarrhalis; [4]): 50 mg/L
MIC against C. diversus (Citrobacter diversus; [5]): 12.5 mg/L
MIC against P. vulgaris (Proteus vulgaris; [6]): 25 mg/L
MIC (E. coli DH5α): 12.5 mg/L
MIC against E. cloacae (Enterobacter cloacae; [7]): 12.5 mg/L
MIC against K. pneumonia (Klebsiella pneumonia; [8]): 50 mg/L
MIC against E. coli BL21 (E. coli BL21; [9]): 50 mg/L
MIC against P. aeruginosa (Pseudomonas aeruginosa; [10]): 12.5 mg/L
